Measured values: US4611066A, “Bryostatins 4 to 8” (Arizona State University, priority 1984, dated 1986)
Converted amounts (≈) assume the structure as drawn.

What was measured:
P 388 (PS) mouse tumor = P 388 (PS) mouse tumor test, life extension in vivo
Description: The dried methylene chloride extracts (derived from the shipping solution and from extraction of the chopped animals) were further separated by taking small portions and subjecting each to solvent partitioning beginning with methanol:water (9:1)/hexane (4 times). […] The aqueous mthanol layers were further diluted with water to a ratio of 8:2 and were extracted repeatedly with carbon tetrachloride (9 times). The carbon tetrachloride extracts were dried and assayed for antitumor activity.
(§1) The isolation and purification methods chosen can be monitored at each step by performing in vitro and/or in vivo antitumor tests as described by R. I. Geran, N. H. Greenberg, M. M. MacDonald, A. M. Schumacher and B. S. Abbot in Cancer Chemother. Rep. Part 3, Vol. 3 (2): 1-103 (1972); and by Schmidt, J. M.; Pettit, G. R. in Experimentia, 34: 659-660 (1978). Such tests include the determination of the concentration of active material rquired to inhibit the growth of tumor cells in culture, (e.g., the concentration required to inhibit growth by 50 percent or the ED50) and of the dose of active material required to prolong the life of mice bearing transplanted tumors.

[1] = test system: murine P388 lymphocytic leukemia (PS cell line); assay: inhibition of growth of PS tumor cells in culture (ED50); assay type: cell-based; conditions: for IC50: Mus musculus
Description: as §1

`CCCC(=O)OC1/C(=C/C(=O)OC)CC2C[C@H]([C@@H](C)O)OC(=O)C[C@H](O)C[C@@H]3C[C@H](OC(=O)CC(C)C)C(C)(C)[C@](O)(C[C@@H]4CC(=CC(=O)OC)CC(/C=C/C(C)(C)C1(O)O2)O4)O3` (some centres unmarked) [Bryostatin 4] was tested, and the “increase in life extension” value (P 388 (PS) mouse tumor; at 46 μg/kg) was 62%.

With `COC(=O)C=C1CC2/C=C/C(C)(C)C3(O)OC(C/C(=C\C(=O)OC)C3OC(C)=O)C[C@H]([C@@H](C)O)OC(=O)C[C@H](O)C[C@@H]3C[C@H](OC(=O)CC(C)C)C(C)(C)[C@](O)(C[C@H](C1)O2)O3` (some centres unmarked) [Bryostatin 5] the “in vivo life extension” value (P 388 (PS) mouse tumor; at 185 μg/kg) was 88% and the IC50 ([1]; P388, PS cell line) was 0.26 to 1.3 ng/mL (≈ 0.3 to 1.5 nM).

`CCCC(=O)O[C@H]1C[C@H]2C[C@@H](O)CC(=O)O[C@@H]([C@@H](C)O)C[C@@H]3C/C(=C\C(=O)OC)[C@H](OC(C)=O)[C@@](O)(O3)C(C)(C)/C=C/[C@H]3C/C(=C\C(=O)OC)C[C@@H](C[C@](O)(O2)C1(C)C)O3` [Bryostatin 6] was tested, and the “in vivo life extension” value (P 388 (PS) mouse tumor; at 185 μg/kg) was 82% and the ED50 ([1]; PS cell line) was 3 ng/mL (≈ 3.52 nM).

With `COC(=O)C=C1CC2/C=C/C(C)(C)C3(O)OC(C/C(=C\C(=O)OC)C3OC(C)=O)C[C@H]([C@@H](C)O)OC(=O)C[C@H](O)C[C@@H]3C[C@H](OC(C)=O)C(C)(C)[C@](O)(C[C@H](C1)O2)O3` (some centres unmarked) [Bryostatin 7] the “in vivo life extension” value (P 388 (PS) mouse tumor; at 92 μg/kg) was 77% and the IC50 ([1]; P388, PS cell line) was 0.026 ng/mL (≈ 0.0315 nM).

In the case of `CCCC(=O)OC1/C(=C/C(=O)OC)CC2C[C@H]([C@@H](C)O)OC(=O)C[C@H](O)C[C@@H]3C[C@H](OC(=O)CCC)C(C)(C)[C@](O)(C[C@@H]4CC(=CC(=O)OC)CC(/C=C/C(C)(C)C1(O)O2)O4)O3` (some centres unmarked) [Bryostatin 8], the IC50 ([1]; murine P388 lymphocytic leukemia assay (PS cell line), unit inferred) was 1.3 ng/mL (≈ 1.48 nM).
